ChEMBL document CHEMBL4007488, “Amphiphilic Indole Derivatives as Antimycobacterial Agents: Structure-Activity Relationships and Membrane Targeting Properties” (J Med Chem, 2017)
Converted amounts (≈) assume the structure as drawn. The source made the active and inactive calls. The rule behind the calls is not given here.

Columns and labels:
Lipid bilayer [1] = test: Binding affinity to DMPG vesicles assessed as melting transition temperature by differential scanning calorimetric analysis (reference value: 21.09 to 23.32 degC)
[2] = system: Mycolicibacterium smegmatis; test: Antimycobacterial activity against Mycobacterium smegmatis MC2 155 ATCC 700084 assessed as growth inhibition at 10 uM after 5 days relative to control; type: functional; details: MC2 155 ATCC 700084, 120 h, read-out: GI
Lipid bilayer [3] = test: Binding affinity to DMPG vesicles assessed as increase in width at 1/2 height of endotherm of compound containing vesicles by differential scanning calorimetric analysis
[4] = system: Mycobacterium tuberculosis; test: Antimycobacterial activity against Mycobacterium tuberculosis H37Rv ATCC 27294 assessed as growth inhibition at 10 uM after 5 days relative to control; type: functional; details: H37Rv ATCC 27294, 120 h, read-out: GI
Lipid bilayer [5] = test: Binding affinity to DMPG vesicles assessed as change in enthalpy by differential scanning calorimetric analysis
[6] = Selectivity index, ratio of IC50 for human HepG2 cells to MIC50 for Mycobacterium tuberculosis H37Rv ATCC 27294; type: toxicity; details: read-out: Selectivity Index
HepG2 = test: Cytotoxicity against human HepG2 cells assessed as reduction in cell viability after 48 hrs by MTT assay; type: cell-based; details: HepG2, 48 h
[7] = Selectivity index, ratio of IC50 for African green monkey Vero E6 cells to MIC50 for Mycobacterium tuberculosis H37Rv ATCC 27294; type: toxicity, Vero C1008; details: read-out: Selectivity Index
[8] = system: Mycobacterium tuberculosis; test: Antimycobacterial activity against Mycobacterium tuberculosis H37Rv ATCC 27294 after 5 days by broth dilution method; type: functional; details: H37Rv ATCC 27294, 120 h
Vero C1008 = test: Cytotoxicity against African green monkey Vero E6 cells assessed as reduction in cell viability after 48 hrs by 96 aqueous one-based assay; details: Chlorocebus sabaeus, Vero C1008, 48 h
[9] = Half life in rat liver microsomes preincubated for 5 mins followed by NADPH addition measured up to 45 mins by LC-MS analysis; type: ADME, microsome
[10] = Aqueous solubility of compound at pH 7.4 at 25 degC after 24 hrs; type: physicochemical; details: buffer
[11] = Therapeutic index, ratio of HC50 for human RBC to MIC50 for Mycobacterium tuberculosis H37Rv ATCC 27294
Escherichia coli = test: Antibacterial activity against Escherichia coli ATCC 25922 after 18 hrs; type: functional
Staphylococcus aureus = test: Antibacterial activity against Staphylococcus aureus ATCC 29213 after 18 hrs; type: functional; details: ATCC 29213, 18 h
Mycobacterium avium = test: Antimycobacterial activity against Mycobacterium avium 11 after 4 days; type: functional; details: Mycobacterium avium, 11, 96 h
[12] = system: Mycobacteroides abscessus; test: Antimycobacterial activity against Mycobacterium abscessus Bamboo after 3 days; type: functional; details: 72 h

Row | SMILES | Tm (Lipid bilayer [1]) [°C] | inhibition of growth at 10 µM [2] [%] | inhibition of growth at 10 µM [4] [%] | deltaH (Lipid bilayer [5]) [kJ/mol] | selectivity ratio [7] | also measured
1 | CCCCCCCCCCn1cc(CN2CCCCCC2)c2c(F)cccc21 | 18.6 | 99 | 99 | -4.03 | – | Activity (Lipid bilayer [3]): inactive
2 | CCCCCCCCn1cc(CN2CCC3(CC2)OCCO3)c2ccc(F)cc21 | 18.5 | 99 | 99 | -9 | 15.8 | selectivity ratio [6]: 8.5; IC50 (HepG2): 25.5 µM; MIC50 [8]: 3 µM (≈ 1.21 µg/mL); MIC90 [8]: 6 µM (≈ 2.42 µg/mL); IC50 (Vero C1008): 47.5 µM
3 | CCCCCCCCn1cc(CN2CCC(C)CC2)c2ccc(OC)cc21 | 18.9 | 99 | 99 | -6.82 | 21.5 | selectivity ratio [6]: 10.5; half-life [9]: 5.5 min; IC50 (HepG2): 15.7 µM; solubility at 24 h [10]: 44.9 µM (≈ 16.6 µg/mL); MIC50 [8]: 1.5 µM (≈ 0.556 µg/mL); MIC90 [8]: 3.3 µM (≈ 1.22 µg/mL); TI [11]: 15 to 30; IC50 (Vero C1008): 32.2 µM
4 | Fc1cccc2[nH]cc(CN3CCCCCC3)c12 | 20.4 | 99 | 99 | -20.2 | – | –
5 | CCCCCCCCn1cc(CN2CCC3(CC2)OCCO3)c2ccc(OC)cc21 | 18.1 | 99 | 99 | -6.64 | 38.4 | selectivity ratio [6]: 13.1; half-life [9]: 27.9 min; IC50 (HepG2): 15.7 µM; solubility at 24 h [10]: 31.3 µM (≈ 13 µg/mL); MIC50 [8]: 1.2 µM (≈ 0.498 µg/mL); MIC90 [8]: 2.3 µM (≈ 0.954 µg/mL); TI [11]: 15 to 30; IC50 (Vero C1008): 46.1 µM
6 | CCCCn1cc(CN2CCCCCC2)c2c(F)cccc21 | 19 | 99 | 99 | -13.8 | – | –
7 | CCCCCCCCCCCCn1cc(CN2CCCCCC2)c2c(F)cccc21 | 18.8 | 99 | 99 | -1.84 | – | Activity (Lipid bilayer [3]): inactive
8 | CC(C)=CCC/C(C)=C/Cn1cc(CN2CCCCC2)c2cc(F)ccc21 | – | 99 | 99 | – | 6 | solubility at 24 h [10]: 25 µM (≈ 9.21 µg/mL)
9 | CCCCCCCCn1ccc2c(F)cccc21 | 19.9 | 99 | 99 | -14 | – | Activity (Lipid bilayer [3]): inactive
10 | CCCCCCCCn1cc(CN2CCC(C)CC2)c2c(F)cccc21 | 19.8 | 99 | 99 | -11.3 | 11.7 | selectivity ratio [6]: 5.2; half-life [9]: 22.8 min; IC50 (HepG2): 15.6 µM; solubility at 24 h [10]: 23.2 µM (≈ 8.32 µg/mL); MIC50 [8]: 3 µM (≈ 1.08 µg/mL); MIC90 [8]: 6 µM (≈ 2.15 µg/mL); IC50 (Vero C1008): 35.2 µM
11 | CCCCCCCCn1cc(CN2CCC3(CC2)OCCO3)c2c(F)cccc21 | 19.4 | 99 | 99 | -7.11 | 7.3 | selectivity ratio [6]: 4.1; IC50 (HepG2): 21.8 µM; MIC50 [8]: 5.3 µM (≈ 2.13 µg/mL); MIC90 [8]: 10.6 µM (≈ 4.27 µg/mL); IC50 (Vero C1008): 38.9 µM
12 | CCCCCCn1cc(CN2CCCCCC2)c2c(F)cccc21 | 19 | 99 | 99 | -6.38 | – | –
13 | CCCCCCCCn1cc(C(=O)N2CCCCCC2)c2cc(F)ccc21 | 18.9 | 99 | 99 | -10.6 | – | Activity (Lipid bilayer [3]): inactive
14 | CCn1cc(CN2CCCCCC2)c2c(F)cccc21 | 19.8 | 99 | 99 | -14.4 | – | –
15 | CCCCCCCCn1cc(CN2CCCCCC2)c2c(F)cccc21 | 18 | 99 | 99 | -5.82 | 12.7 | selectivity ratio [6]: 8.3; half-life [9]: 560 min; Activity (Escherichia coli): inactive; MIC50 (Staphylococcus aureus): 8 µM (≈ 2.87 µg/mL); MIC50 (Mycobacterium avium): 2 µM (≈ 0.717 µg/mL); IC50 (HepG2): 19.2 µM; Activity (Lipid bilayer [3]): Active; MIC50 [12]: 19 µM (≈ 6.81 µg/mL); solubility at 24 h [10]: 35.9 µM (≈ 12.9 µg/mL); MIC50 [8]: 2.3 µM (≈ 0.825 µg/mL); MIC90 [8]: 5 µM (≈ 1.79 µg/mL); TI [11]: 15 to 30; IC50 (Vero C1008): 29.2 µM
16 | CCCCCCCCn1cc(CNC23CC4CC(CC(C4)C2)C3)c2c(F)cccc21 | – | 99 | 99 | – | 8 | selectivity ratio [6]: 6.5; half-life [9]: 15.9 min; IC50 (HepG2): 13 µM; solubility at 24 h [10]: 10.2 µM (≈ 4.19 µg/mL); MIC50 [8]: 2 µM (≈ 0.821 µg/mL); MIC90 [8]: 3 µM (≈ 1.23 µg/mL); IC50 (Vero C1008): 16 µM
17 | CCCCCCCCn1cc(CN2CCC3(CC2)OCCO3)c2cccc(F)c21 | – | 99 | 99 | – | – | –
18 | CC(C)=CCC/C(C)=C/Cn1cc(CN2CCC3(CC2)OCCO3)c2cc(F)ccc21 | – | 99 | 99 | – | – | –
19 | CCCN(C)Cc1cn(C/C=C(\C)CCC=C(C)C)c2ccc(F)cc12 | – | 99 | 99 | – | – | –
20 | CCCCCCCCn1cc(CN(CC)CCC)c2cc(F)ccc21 | – | 99 | 99 | – | – | –
21 | CCCCCCCCn1cc(CN(CCC)CCC)c2cc(F)ccc21 | – | 99 | 99 | – | – | –
22 | Fc1ccc2c(c1)c(CN1CCCCC1)cn2CCC1CCCCC1 | – | 99 | 99 | – | – | –
23 | CCCCCCCCn1cc(CN2CCCCC2)c2ccc(OC)cc21 | – | 99 | 99 | – | – | –
24 | CCCCCCCCn1cc(CN2CCCCCC2)c2cccc(F)c21 | – | 99 | 99 | – | – | –
25 | CCCCCCCCn1ccc2cc(F)ccc21 | – | 99 | 99 | – | – | –
26 | CC(C)=CCC/C(C)=C/Cn1cc(CN2CCCCC2)c2ccccc21 | – | 99 | 99 | – | – | –
